Measured values reported in patent publication US20250352615A1, “COMPOSITIONS AND METHODS FOR THE MODULATION OF PIEZO1 AND TRPV4” (Duke University, priority 2021, published 2025).

Legend:
mouse PSCs = test: Mouse PSC activation and fibrogenic response; format: cell-based; conditions: Yoda1 25 μM
Experimental: Mouse and human PSCs were isolated using collagenase digestion. Modified Krebs Henseleit Buffer (KHB) solution (100 mL) was prepared as previously described by Romac et al., Nat. Commun. 9(1):1715 (2018). Pancreatic tissue was digested with 2 mg of collagenase NB 8 (SERVA, catalog 17456) dissolved in 10 mL of modified KHB solution containing 1 mg soybean trypsin inhibitor (SBTI 1-S; Millipore Sigma, catalog T9003) and 20 mg BSA (Thermo Fisher Scientific; BP1600-100). Digestion solution (5 mL) was used to inflate the pancreas. Pancreas with 5 mL of digestion solution was incubated in a shaking water bath for 10 minutes at 37° C. The solution was then discarded. The pancreas tissue was cut into small pieces and digested with fresh 5 mL digestion buffer. Tissue was incubated in a shaking water bath for 40 minutes at 37° C. The cells were then separated from tissue by pipetting up-down with a 10 mL pipette and passed sequentially through a 70 μm and a 40 μm cell strainer. The filtrate was centrifuged at 150×g for 3 minutes at room temperature. The cells were washed with 10 mL Leibovitz's media (Thermo Fisher Scientific, catalog 11415-064), passed through a 20 μm filter, and centrifuged at 80×g for 3 minutes at room temperature. The supernate was removed, and isolated stellate cells were plated on a thin-layered Matrigel-coated glass bottom culture plate (MatTek, P35G-0-14-C). Before plating the cells, Matrigel solution (Corning, catalog 354234) at a ratio of 1.5:100 DMEM/F12 (Thermo Fisher Scientific, catalog 11330-032) was poured onto the culture plate and incubated for 2 hr at 37° C. to form a thin layer of Matrigel coating. Matrigel mixture was removed, and the plate was washed with PBS before cells were plated. Cell culture media, DMEM/F12 with 5% FBS was used for mouse stellate cells. Fresh, human pancreatic tissue was digested with collagenase as described above with modifications. […] The cell viability following Yoda1 treatment was analyzed using the Live/Dead cell imaging kit (Thermo Fisher Scientific, catalog R37601). […]

PLA2 = PLA2 activity in living pancreatic acini (Bis-BODIPY FL C11-PC); format: cell-based, mouse; conditions: Yoda1 25 μM
Experimental: The fluorogenic PLA2 substrate (Bis-BODIPY FL C11-PC) (Thermo Fisher Scientific; B7701) was used to monitor PLA2 activity in living cells. The pancreatic acini were incubated with Bis-BODIPY FL C11-PC in HBSS buffer with 2 mM Ca^2+ for 30 minutes. HBSS buffer with 2 mM Ca^2+ was used during imaging. A Zeiss Axio observer Z1 with a high-sensitivity EMCCD camera with a ×40/0.75 EC-Plan-NeoFluar DIC objective was used to capture the Z-stack images with stack thickness of 4 μm at an interval of 10 seconds with 480 nm excitation and 525 nm emission filter. The captured images were analyzed with MetaMorph software (Molecular Devices).

pancreatic acini = test: Mitochondrial depolarization in pancreatic acini (TMRE); format: cell-based, mouse; conditions: Yoda1 50 μM
Experimental: Live-cell mitochondrial depolarization was analyzed using the mitochondrial labeling dye, TMRE. Isolated acini were plated on a thin-layered, Matrigel-coated, glass-bottom culture plate with DMEM/F12 and 10% FBS media and placed in a CO2 incubator for 1 hr at 37° C. After 1 hr, the acini were incubated with TMRE (200 nM) in the bath buffer containing 140 mM NaCl, 4.7 mM KCl, 2.0 CaCl2, 1 mM MgCl2, 10 mM HEPES, and 10 mM glucose (pH adjusted to 7.4 with NaOH) for 30 minutes. The TMRE dye was washed and replaced with fresh bath buffer. The images were captured with a Zeiss Axio observer Z1 microscope with MetaMorph software (Molecular Devices) at intervals of 600 ms. TMRE was excited at 540-600 nm and emission collected at 585-675 nm. Carbonyl cyanide 4-(trifluoromethoxy) phenylhydrazone (FCCP), which uncouples the oxidative phosphorylation process and depolarizes mitochondria, was used as a positive control. A maximum of 2 mitochondrial puncta were taken per acinar cell.

Clc1cccc(Cl)c1CSc1nnc(-c2cnccn2)s1 [Yoda1]
activation of PSCs from TRPV4-KO mice (cell shape, perinuclear fat droplets, ECM protein expression) (mouse PSCs): did not activate PSCs from TRPV4-KO mice
effects of Yoda1 on fibrosis in Piezo1-deleted PSCs (mouse PSCs; Piezo1GFAP-KO PSCs): prevented in Piezo1-deleted PSCs
PSC activation phenotype (mouse PSCs; WT mouse PSCs): converted mouse PSCs to an activated phenotype with reduced perinuclear fat droplets, changes in cell shape, and increased fibronectin and collagen type I
PLA2 activation in acini from Piezo1aci-KO mice (PLA2): did not stimulate PLA2 activation
onset of PLA2 activation after application (PLA2): ≤ 30 s
time to plateau of PLA2 activity (PLA2): 4 min
intensity of fluorogenic PLA2 substrate (PLA2 activity) (PLA2; WT acini): markedly increased the intensity of the fluorogenic PLA2 substrate
mitochondrial depolarization in Piezo1aci-KO cells (pancreatic acini): did not depolarize mitochondria
rate of mitochondrial depolarization compared with CCK (10 nM) (pancreatic acini): occurred at a higher rate than that induced with CCK
TMRE fluorescence intensity (mitochondrial depolarization) (pancreatic acini; WT acini): significantly decreased TMRE fluorescence intensity
time to mitochondrial depolarization after application (pancreatic acini; CCK 10 nM): ≤ 3 min
